Source: PubChem BioAssay (NCI)
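Following 48 hours of exposure in 96-well plates, responses at five concentrations were used to interpolate endpoints linearly. TGI denotes the concentration required for complete inhibition of growth.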

Tests used:
Assay in all cases: NCI tumour cell line growth inhibition, 48 h
[1] = test system: SNB-75 CNS
[2] = test system: SR leukemia
[3] = test system: SW-620 colon
[4] = test system: TK-10 renal
[5] = test system: EKVX NSCLC
[6] = test system: SF-539 CNS
[7] = test system: OVCAR-3 ovarian
[8] = test system: SK-MEL-5 melanoma
[9] = test system: UACC-257 melanoma
[10] = test system: SK-MEL-2 melanoma
[11] = test system: LOX IMVI melanoma
[12] = test system: IGROV1 ovarian
[13] = test system: HL-60(TB) leukemia
[14] = test system: NCI-H522 lung
[15] = test system: SF-268 CNS
[16] = test system: OVCAR-4 ovarian
[17] = test system: HCT-15 colon
[18] = test system: OVCAR-8 ovarian
[19] = test system: NCI-H226 lung
[20] = test system: SK-MEL-28 melanoma
[21] = test system: MOLT-4 leukemia
[22] = test system: HOP-62 NSCLC
[23] = test system: OVCAR-5 ovarian
[24] = test system: NCI-H23 lung
[25] = test system: RXF 393 renal
[26] = test system: A498 renal
[27] = test system: M14 melanoma
[28] = test system: NCI-H460 lung
[29] = test system: SK-OV-3 ovarian
[30] = test system: UACC-62 melanoma
[31] = test system: DLD-1 colon
[32] = test system: HOP-92 NSCLC
[33] = test system: ACHN renal
[34] = test system: DMS 273 small cell lung
[35] = test system: K-562 leukemia
[36] = test system: U251 CNS
[37] = test system: LXFL 529 NSCLC
[38] = test system: KM12 colon
[39] = test system: HT29 colon
[40] = test system: HCC-2998 colon
[41] = test system: M19-MEL melanoma
[42] = test system: MALME-3M melanoma
[43] = test system: A549 NSCLC
[44] = test system: SNB-78 CNS
[45] = test system: UO-31 renal
[46] = test system: CAKI-1 renal
[47] = test system: COLO 205 colon
[48] = test system: CCRF-CEM leukemia
[49] = test system: RXF-631 renal
[50] = test system: 786-0 renal
[51] = test system: SNB-19 CNS
[52] = test system: SF-295 CNS
[53] = test system: RPMI-8226 leukemia
[54] = test system: XF 498 CNS
[55] = test system: SN12C renal
[56] = test system: DMS 114 small cell lung
[57] = test system: HCT-116 colon
[58] = test system: KM20L2 colon

With COC1=CC(=O)[C@]2(C)[C@H](C1=O)C(C)[C@H]2c1ccccc1 (stereo partly drawn) the TGI [1] was > 100 µM, the TGI [2] was > 100 µM and the TGI [3] was > 100 µM. The TGI [4] was > 100 µM, the TGI [5] was > 100 µM and the TGI [6] was > 100 µM. The TGI [7] was > 100 µM, the TGI [8] was > 100 µM and the TGI [9] was > 100 µM. For the same molecule, the TGI [10] was > 100 µM, the TGI [11] was > 100 µM and the TGI [12] was > 100 µM. For the same molecule, the TGI [13] was > 100 µM, the TGI [14] was > 100 µM and the TGI [15] was > 100 µM. For the same molecule, the TGI [16] was > 100 µM, the TGI [17] was > 100 µM and the TGI [18] was > 100 µM. For the same molecule, the TGI [19] was > 100 µM, the TGI [20] was > 100 µM and the TGI [21] was > 100 µM. For the same molecule, the TGI [22] was > 100 µM, the TGI [23] was > 100 µM and the TGI [24] was > 100 µM. For the same molecule, the TGI [25] was > 100 µM, the TGI [26] was > 100 µM and the TGI [27] was > 100 µM. The TGI [28] was > 100 µM, the TGI [29] was > 100 µM and the TGI [30] was > 100 µM. For the same molecule, the TGI [31] was > 100 µM, the TGI [32] was > 100 µM and the TGI [33] was > 100 µM. The TGI [34] was > 100 µM, the TGI [35] was > 100 µM and the TGI [36] was > 100 µM. The TGI [37] was > 100 µM, the TGI [38] was > 100 µM and the TGI [39] was > 100 µM. For the same molecule, the TGI [40] was > 100 µM, the TGI [41] was > 100 µM and the TGI [42] was > 100 µM. The TGI [43] was > 100 µM, the TGI [44] was > 100 µM and the TGI [45] was > 100 µM. For the same molecule, the TGI [46] was > 100 µM, the TGI [47] was > 100 µM and the TGI [48] was > 100 µM. The TGI [49] was > 100 µM, the TGI [50] was > 100 µM and the TGI [51] was > 100 µM. The TGI [52] was > 100 µM, the TGI [53] was > 100 µM and the TGI [54] was > 100 µM.

With CC(=O)c1cccc(NC(=O)C(=O)C(C(=O)c2ccccc2F)C2OC(=O)c3ccccc32)c1 (stereo not drawn) the TGI [1] was 76.3 µM, the TGI [2] was 54.9 µM and the TGI [3] was > 100 µM. The TGI [4] was > 100 µM, the TGI [5] was > 100 µM and the TGI [8] was > 100 µM. For the same molecule, the TGI [9] was > 100 µM, the TGI [10] was 96.1 µM and the TGI [11] was 62.9 µM. The TGI [55] was > 100 µM, the TGI [12] was > 100 µM and the TGI [13] was 64.8 µM. The TGI [14] was 56.7 µM, the TGI [15] was > 100 µM and the TGI [16] was > 100 µM. For the same molecule, the TGI [17] was > 100 µM, the TGI [18] was > 100 µM and the TGI [19] was 67.3 µM. The TGI [20] was > 100 µM, the TGI [21] was > 100 µM and the TGI [22] was > 100 µM. For the same molecule, the TGI [23] was > 100 µM, the TGI [24] was > 100 µM and the TGI [25] was 70 µM. For the same molecule, the TGI [26] was > 100 µM, the TGI [27] was > 100 µM and the TGI [28] was > 100 µM. The TGI [29] was > 100 µM, the TGI [30] was > 100 µM and the TGI [31] was > 100 µM. For the same molecule, the TGI [32] was > 100 µM, the TGI [33] was > 100 µM and the TGI [34] was > 100 µM. For the same molecule, the TGI [35] was > 100 µM, the TGI [36] was 53.2 µM and the TGI [37] was > 100 µM. For the same molecule, the TGI [38] was > 100 µM, the TGI [39] was > 100 µM and the TGI [40] was 53.9 µM. The TGI [41] was > 100 µM, the TGI [56] was 90 µM and the TGI [43] was > 100 µM. The TGI [44] was > 100 µM, the TGI [45] was > 100 µM and the TGI [46] was > 100 µM. The TGI [47] was 41.9 µM, the TGI [48] was 49.6 µM and the TGI [49] was > 100 µM. The TGI [51] was > 100 µM, the TGI [57] was 88.6 µM and the TGI [52] was > 100 µM. The TGI [53] was 87.9 µM, the TGI [58] was > 100 µM and the TGI [54] was > 100 µM.
